Measurements taken from patent US20230321187A1, “OCTOPUS-DERIVED PEPTIDE OCTOPROMYCIN HAVING ANTIBACTERIAL AND ANTI-BIOFILM ACTIVITY AGAINST ACINETOBACTER BAUMANNII” (priority 2020, published 2023).
Entries after “also recorded” stand apart in the source; their conditions may differ. Where no end group is shown, it is not given here.

Columns and labels:
[1] = system: A. baumannii; test: MIC and MBC by media dilution test and subculture (CLSI); format: cell-based, Acinetobacter baumannii
Method: In Example 2, in order to confirm the antibacterial effect of octopromycin on A. baumannii bacteria having multi-drug resistance, a minimum inhibitory concentration (MIC) and a minimum bactericidal concentration (MBC) of octopromycin were confirmed.
The MIC and MBC levels of octopromycin in A. baumannii were determined using media dilution tests and subcultures, respectively, according to the guidelines of the Clinical and Laboratory Standards Institute (CLSI, 2008 M27-A3). Several concentrations of octopromycin (0, 5, 10, 25, 50, 100, and 200 μg/mL) were tested as standard antibiotics (positive control) together with chloramphenicol (10 μg/mL, Sigma-Aldrich, USA) acting on A. baumannii growth and the MBC of chloramphenicol was confirmed according to the same procedure. The MIC was determined as the minimum concentration required to inhibit visual growth of A. baumannii. […] For analysis of time-kill kinetics, A. baumannii was cultured with octopromycin at various concentrations (0, 25, 50, 100, and 200 μg/mL) in the TSA medium at 25° C., and at different time intervals (0, 3, 6, 9, 12, 18, and 21 h), the absorbance was measured at 595 nm using a microplate reader (Bio-Rad, Saint Louis, USA) to confirm an inhibitory effect after culturing.

[2] = system: A. baumannii biofilm; test: Eradication of already formed biofilm (crystal violet staining); format: cell-based, Acinetobacter baumannii; details: 24 hours after treatment
Method: Next, the effect of octopromycin on biofilm eradication in A. baumannii was confirmed. To measure the eradication effect of the already formed biofilm, 100 μL of A. baumannii (5×10^5 CFU/mL) was cultured in TSB for 24 hours. The culture medium was removed and the wells were carefully washed with PBS to eradicate planktonic bacteria. The wells were added with octopromycin (50 μg/mL (MIC) and 200 μg/mL (MBC)) and further cultured for 24 hours. The biofilm was stained with crystal violet for 30 minutes, washed three times with PBS, and dissolved in 95% ethanol, and the absorbance was measured at 495 nm using a microplate reader (Bio-Rad, USA).

[3] = system: A. baumannii; format: cell-based; details: Acinetobacter baumannii, 24 h, 200 μg/mL
Method: A. baumannii was cultured in TSB (OD-0.25, 2.5 x 10^6 CFU/mL) and treated with octopromycin at various concentrations (0, 25, 50, 75, 100, 150, and 200 μg/mL). After culturing for 24 hours in a shaking incubator at 180 rpm at 25° C., A. baumannii was centrifuged at 3500 rpm for 10 minutes, and the cells were washed with PBS. For cell viability assay, A. baumannii cells reacted with 20 μL of an MTT reagent (Sigma Aldrich, USA) for 30 minutes, and the samples were resuspended in dimethylsulfoxide (Sigma Aldrich, USA). The cell viability was measured based on OD at 570 nm using a microplate reader (Bio-Rad, Saint Louis, USA).

[4] = system: A. baumannii; test: Histological analysis of A. baumannii-infected zebrafish (H&E); format: in vivo; details: 48 hpe, vs A. baumannii-infected group
Description: Two zebrafish were selected from each group at the 80% death stage (48 hpe) and the spleen, gills and kidneys were collected separately. Structural changes in A. baumannii-infected zebrafish treated with octopromycin were confirmed by histological analysis. Briefly, two fish from each group (control group, A. baumannii-infected group and octopromycin-treated group) were anesthetized with excess tricaine and the spleen, gills, and kidneys were surgically removed. Each tissue was immersed in PBS and fixed in 10% neutral buffered formalin. After a 12-hour washing step, tissues were dehydrated using a graded series of alcohols in a semi-closed benchtop tissue processor (Leica® TP1020, Germany). The dehydrated tissues were paraffin-embedded (Leica®EG1150 Tissue Embedding Center, Germany), sectioned at […] (Leica®RM2125 microtome, Germany), and stained with Hematoxylin and Eosin (H & E) (Sigma, Aldrich). The stained tissues of each group were imaged using a digital camera (LEICA®DCF450-C, Germany) connected to a microscope (LEICA®DM 3000 LED).

[5] = system: A. baumannii; test: FE-SEM analysis of morphological and ultrastructural changes; format: cell-based, Acinetobacter baumannii; details: MIC (50 μg/mL) and MBC (200 μg/mL), 9 hours
Method: To understand a mode of action of octopromycin, FE-SEM analysis was performed at MIC and MBC concentrations to estimate the ultrastructure changes of A. baumannii.
First, A. baumannii cells were treated with octopromycin at MIC (50 μg/mL) and MBC (200 μg/mL) for 9 hours. As a negative control group, an untreated A. baumannii culture solution was used, and all other steps were performed identically for the sample. Subsequently, the culture solution was centrifuged at 3500 rpm […] and the pellet was washed with phosphate saline buffer PBS and prefixed with 2.5% glutaraldehyde for 30 minutes. Then, the prefixed cells were washed with PBS and continuously dehydrated using ethanol (30, 50, 70, 80, 90, and 100%). The fixed cells were dried and coated with platinum using an ion sputter (E-1030, Hitachi, Japan).

[6] = system: A. baumannii; test: Propidium iodide (PI) uptake / FDA staining membrane permeability assay (CLSM); format: cell-based, Acinetobacter baumannii
Method: Propidium iodide (PI) uptake assay was performed to evaluate an effect of octopromycin on association with the membrane permeability and apoptosis of A. baumannii. The PI was a red fluorescent nuclear and chromosome counter dye that indicated changes in cell membrane permeability, and was used to detect the presence of dead cells and simultaneously observe live cells by observing green fluorescence (FDA). A. baumannii treated with octopromycin at MIC; 50 μg/mL and MBC; 200 μg/mL levels and control cell suspensions were centrifuged (5000 rpm for 2 minutes), washed with PBS and the pellets were suspended in PBS. Subsequently, the cells were cultured with 20 μg/mL of PI (Sigma Aldrich, USA) and 8 μg/mL of FDA (Sigma Aldrich, USA) at 25° C. for 30 minutes in the dark, and finally, the remaining dye was washed with PBS. Finally, a 5 μL drop of each suspension was placed on a cover slip and fluorescence images were observed using a CLSM integrated with a scan head on an Axiovert 200M inverted microscope (Carl Zeiss, Germany).

How did the “minimum bactericidal concentration (MBC)” value ([1]; subculture on TSA, 24 hours) turn out when “RRLIRTDTGPIIYDYFKDQLLKKGMVILRESMKNLKGM [octopromycin]” was run?
Its value is 200 µg/mL.

What about the “minimum inhibitory concentration (MIC)” value ([1]; visual growth) of the same sequence?
The value was 50 µg/mL.

What about the “reduction in biofilm (eradication)” value ([2]; MBC (200 μg/mL)) of the same sequence?
The value was 64.2%.

What about the “reduction in biofilm (eradication)” value ([2]; MIC (50 μg/mL)) of the same sequence?
The value was 64.0%.

And the “cell viability of A. baumannii” value [3]?
Its value is 1.54%.

And the “histology of kidney, spleen and gills” value [4]?
The value was “tissue disorders and pathological damage were reduced overall; also recorded: tissue disorders and pathological damage were reduced in all tissues”.

And the “morphological and ultrastructural changes (FE-SEM)” value [5]?
The value was “severe membrane destruction; also recorded: caused ultrastructural cell wall deformation”.

And the “membrane permeability (PI/FDA staining)” value ([6]; MBC (200 μg/mL))?
The value was “almost all A. baumannii cells showed red fluorescence signals”.

And the “membrane permeability (PI/FDA staining)” value ([6]; MIC (50 μg/mL))?
The value was “more PI-stained red fluorescent cells”.
